According to ChEMBL document CHEMBL4610099, “Galtonosides A-E: Antiproliferative and Antiplasmodial Cholestane Glycosides from Galtonia regalis” (J Nat Prod, 2020):
Calls of active or inactive are those of the source. The rule behind the calls is not given here.

Legend:
Plasmodium falciparum [1] = test: Antiplasmodial activity against ring stage Plasmodium falciparum Dd2 assessed as reduction in parasite growth after 72 hrs by SYBR Green 1 staining based assay; type: functional, organism-based; conditions: Dd2, 72 h
A2780 = test: Antiproliferative activity against human A2780 cells assessed as reduction in cell viability after 2 days hrs by AlamarBlue assay; type: functional, cell-based; conditions: A2780, 48 h
Erythrocyte [2] = test: Hemolytic activity against human erythrocytes infected with ring stage Plasmodium falciparum Dd2 assessed as reduction in cell viability at 11 uM up to 72 hrs by Giemsa-staining based light microscopic analysis
Erythrocyte [3] = test: Hemolytic activity against human erythrocytes infected with ring stage Plasmodium falciparum Dd2 assessed as morphological changes at 11 uM up to 72 hrs by Giemsa-staining based light microscopic analysis; type: ADME, cell-based
Plasmodium falciparum [4] = test: Antiplasmodial activity against ring stage Plasmodium falciparum Dd2 infected in human erythrocytes assessed as reduction in trophozoites formation at 11 uM up to 72 hrs by Giemsa-staining based light microscopic analysis; type: functional, organism-based
Erythrocyte [5] = test: Hemolytic activity against human erythrocytes infected with ring stage Plasmodium falciparum Dd2 assessed as morphological changes at IC50 concentration up to 72 hrs; type: ADME, cell-based
Erythrocyte [6] = test: Hemolytic activity against human erythrocytes assessed as morphological changes at IC50 concentration up to 72 hrs; type: ADME, cell-based
Erythrocyte [7] = test: Hemolytic activity against human erythrocytes infected with ring stage Plasmodium falciparum Dd2 assessed as reduction in cell viability at 3 uM up to 72 hrs by Giemsa-staining based light microscopic analysis
Erythrocyte [8] = test: Hemolytic activity against human erythrocytes infected with ring stage Plasmodium falciparum Dd2 assessed as morphological changes at 3 uM up to 72 hrs by Giemsa-staining based light microscopic analysis; type: ADME, cell-based
Plasmodium falciparum [9] = test: Antiplasmodial activity against ring stage Plasmodium falciparum Dd2 infected in human erythrocytes assessed as reduction in trophozoites formation at 3 uM up to 72 hrs by Giemsa-staining based light microscopic analysis; type: functional, organism-based
Erythrocyte [10] = test: Hemolytic activity against human erythrocytes infected with ring stage Plasmodium falciparum Dd2 assessed as reduction in cell viability at 6 uM up to 72 hrs by Giemsa-staining based light microscopic analysis
Erythrocyte [11] = test: Hemolytic activity against human erythrocytes infected with ring stage Plasmodium falciparum Dd2 assessed as morphological changes at 6 uM up to 72 hrs by Giemsa-staining based light microscopic analysis; type: ADME, cell-based
Plasmodium falciparum [12] = test: Antiplasmodial activity against ring stage Plasmodium falciparum Dd2 infected in human erythrocytes assessed as reduction in trophozoites formation at 6 uM up to 72 hrs by Giemsa-staining based light microscopic analysis; type: functional, organism-based

COc1ccc(C(=O)O[C@H]2[C@H](O[C@@H]3[C@@H](OC(C)=O)[C@H](O[C@H]4C[C@H]5[C@@H]6CC=C7C[C@@H](O)CC[C@]7(C)[C@H]6CC[C@]5(C)[C@H]4[C@H](C)C(=O)CCC(C)C)OC[C@@H]3O)OC[C@@H](O)[C@@H]2O)cc1OC
IC50 (Plasmodium falciparum [1]): 630 nM | IC50 (A2780): 100 nM | Activity (Erythrocyte [2]): Non-Toxic | Activity (Erythrocyte [3]): Non-Toxic | Activity (Plasmodium falciparum [4]): Active | Activity (Erythrocyte [5]): Non-Toxic | Activity (Erythrocyte [6]): Non-Toxic

COc1ccc(C(=O)O[C@H]2[C@H](O[C@@H]3[C@@H](OC(C)=O)[C@H](O[C@H]4C[C@H]5[C@@H]6CC=C7C[C@@H](O)CC[C@]7(C)[C@H]6CC[C@]5(C)[C@@]4(O)[C@H](C)C(=O)CCC(C)C)OC[C@@H]3O)OC[C@@H](O)[C@@H]2O)cc1OC
IC50 (Plasmodium falciparum [1]): 1510 nM | IC50 (A2780): 100 nM | Activity (Erythrocyte [5]): Non-Toxic | Activity (Erythrocyte [6]): Non-Toxic

C[C@@H]1CC[C@H]2[C@@H](C)C(=O)O[C@@H]3O[C@@]4(C)CC[C@@H]1[C@]32OO4 [ARTEMISININ]
IC50 (Plasmodium falciparum [1]): 6.5 nM

COc1ccc(C(=O)O[C@H]2[C@H](O[C@H]3C[C@H]4[C@@H]5CC=C6C[C@@H](O)CC[C@]6(C)[C@H]5CC[C@]4(C)[C@@]3(O)[C@H](C)C(=O)CCC(C)C)OC[C@H](O)[C@@H]2O)cc1OC
IC50 (Plasmodium falciparum [1]): 210 nM | IC50 (A2780): 140 nM | Activity (Erythrocyte [7]): Non-Toxic | Activity (Erythrocyte [8]): Non-Toxic | Activity (Plasmodium falciparum [9]): Active | Activity (Erythrocyte [5]): Non-Toxic | Activity (Erythrocyte [6]): Non-Toxic

COc1cc(C(=O)O[C@H]2[C@H](O[C@@H]3[C@@H](OC(C)=O)[C@H](O[C@H]4C[C@H]5[C@@H]6CC=C7C[C@@H](O)CC[C@]7(C)[C@H]6CC[C@]5(C)[C@H]4[C@H](C)C(=O)CCC(C)C)OC[C@@H]3O)OC[C@@H](O)[C@@H]2O)cc(OC)c1OC
IC50 (Plasmodium falciparum [1]): 610 nM | IC50 (A2780): 100 nM | Activity (Erythrocyte [2]): Non-Toxic | Activity (Erythrocyte [3]): Non-Toxic | Activity (Plasmodium falciparum [4]): Active | Activity (Erythrocyte [5]): Non-Toxic | Activity (Erythrocyte [6]): Non-Toxic

COc1cc(C(=O)O[C@H]2[C@H](O[C@@H]3[C@@H](OC(C)=O)[C@H](O[C@H]4C[C@H]5[C@@H]6CC=C7C[C@@H](O)CC[C@]7(C)[C@H]6CC[C@]5(C)[C@@]4(O)[C@H](C)C(=O)CCC(C)C)OC[C@@H]3O)OC[C@@H](O)[C@@H]2O)cc(OC)c1OC
IC50 (Plasmodium falciparum [1]): 560 nM | IC50 (A2780): 90 nM | Activity (Erythrocyte [2]): Non-Toxic | Activity (Erythrocyte [3]): Non-Toxic | Activity (Plasmodium falciparum [4]): Active | Activity (Erythrocyte [5]): Non-Toxic | Activity (Erythrocyte [6]): Non-Toxic

CC(=O)O[C@H]1[C@H](O[C@H]2C[C@H]3[C@@H]4CC=C5C[C@@H](O)CC[C@]5(C)[C@H]4CC[C@]3(C)[C@H]2[C@H](C)C(=O)CCC(C)C)OC[C@H](O)[C@@H]1O[C@@H]1OC[C@@H](O)[C@H](O)[C@H]1OC(=O)/C=C/c1ccccc1
IC50 (Plasmodium falciparum [1]): 420 nM | IC50 (A2780): 100 nM | Activity (Erythrocyte [10]): Non-Toxic | Activity (Erythrocyte [11]): Non-Toxic | Activity (Plasmodium falciparum [12]): Active | Activity (Erythrocyte [5]): Non-Toxic | Activity (Erythrocyte [6]): Non-Toxic

CC(=O)O[C@H]1[C@H](O[C@H]2C[C@H]3[C@@H]4CC=C5C[C@@H](O)CC[C@]5(C)[C@H]4CC[C@]3(C)[C@@]2(O)[C@H](C)C(=O)CCC(C)C)OC[C@H](O)[C@@H]1O[C@@H]1OC[C@@H](O)[C@H](O)[C@H]1OC(=O)/C=C/c1ccccc1
IC50 (Plasmodium falciparum [1]): 950 nM | IC50 (A2780): 100 nM | Activity (Erythrocyte [5]): Non-Toxic | Activity (Erythrocyte [6]): Non-Toxic
